Read-outs that look alike come from different tables or passages of the source.
Experiments:
Type in all cases: in vivo
[1] = system: Polygonum convolvulus (POLCO); test: Post-emergence herbicidal action against POLCO
Protocol: (§1) Seeds of monocotyledonous and dicotyledonous weeds and crop plants are placed in sandy loam in plastic or organic planting pots, covered with soil and cultivated in a greenhouse under controlled growth conditions. 2 to 3 weeks after sowing, the test plants are treated at the one-leaf stage. The compounds of the invention, formulated in the form of wettable powders (WP) or as emulsion concentrates (EC), are then sprayed onto the green parts of the plants as aqueous suspension or emulsion with addition of 0.5% additive at a water application rate of 600 l/ha (converted). After the test plants have been kept in the greenhouse under optimum growth conditions for about 3 weeks, the activity of the preparations is rated visually in comparison to untreated controls. For example, 100% activity=the plants have died, 0% activity=like control plants.
(§2) Tables B1 to B13 below show the effects of selected compounds of the general formula (I) according to Table 1 on various harmful plants and at an application rate corresponding to 320 g/ha or lower, which were obtained by the experimental procedure mentioned above. The appendices “a”, “b” and “c” give differentiation by dosage used with otherwise the same harmful plants tested.

[2] = system: Avena fatua (AVEFA); test: Post-emergence herbicidal action against AVEFA; conditions: visual rating about 3 weeks after treatment
Protocol: as §1, §2

[3] = system: Polygonum convolvulus (POLCO); test: Pre-emergence herbicidal action against POLCO
Excerpt: (§3) Seeds of monocotyledonous and dicotyledonous weed plants and crop plants are placed in plastic or organic planting pots and covered with soil. The compounds of the invention, formulated in the form of wettable powders (WP) or as emulsion concentrates (EC), are then applied to the surface of the covering soil as aqueous suspension or emulsion with addition of 0.5% additive at a water application rate equivalent to 600 l/ha. After the treatment, the pots are placed in a greenhouse and kept under good growth conditions for the trial plants. After about 3 weeks, the effect of the preparations is scored visually in comparison with untreated controls as percentages. For example, 100% activity=the plants have died, 0% activity=like control plants.
(§4) Tables A1 to A13 below show the effects of selected compounds of the general formula (I) on various harmful plants and at an application rate corresponding to 320 g/ha or lower, which were obtained by the experimental procedure mentioned above. The appendices “a”, “b” and “c” give differentiation by dosage used with otherwise the same harmful plants tested.

[4] = system: Amaranthus retroflexus (AMARE); test: Post-emergence herbicidal action against AMARE
Protocol: as §1, §2

[5] = system: Avena fatua (AVEFA); test: Pre-emergence herbicidal action against AVEFA; conditions: 320 g/ha, visual scoring after about 3 weeks vs untreated controls
Excerpt: as §3, §4

[6] = system: Alopecurus myosuroides (ALOMY); test: Pre-emergence herbicidal action against ALOMY; conditions: scored visually after about 3 weeks, 100% = plants have died
Excerpt: as §3, §4

[7] = system: Alopecurus myosuroides (ALOMY); test: Post-emergence herbicidal action against ALOMY; conditions: visual rating about 3 weeks after treatment vs untreated controls (100% = plants have died, 0% = like control plants)
Protocol: as §1, §2

[8] = system: Viola tricolor (VIOTR); test: Pre-emergence herbicidal action against VIOTR
Excerpt: as §3, §4

[9] = system: Lolium rigidum (LOLRI); test: Pre-emergence herbicidal action against LOLRI
Excerpt: as §3, §4

[10] = system: Abutilon theophrasti (ABUTH); test: Post-emergence herbicidal action against ABUTH; conditions: visual rating about 3 weeks after treatment vs untreated controls (100% = plants have died, 0% = like control plants)
Protocol: as §1, §2

[11] = system: Oryza sativa (ORYSA); conditions: crop plant compatibility
Protocol: as §1
(§5) The observed effects on selected crop plants are reported here in comparison to the untreated controls (values in %). The appendices “a”, “b” and “c” give differentiation by dosage used with otherwise the same crop plants tested.

[12] = system: Zea mays (ZEAMX); conditions: for Post-emergence action against ZEAMX in %: crop plant compatibility, 80 g/ha, effect vs untreated controls
Protocol: as §1, §5

[13] = system: Lolium rigidum (LOLRI); test: Post-emergence herbicidal action against LOLRI
Protocol: as §1, §2

[14] = system: Setaria viridis (SETVI); test: Pre-emergence herbicidal action against SETVI
Excerpt: as §3, §4

[15] = system: Pharbitis purpurea (PHBPU); test: Pre-emergence herbicidal action against PHBPU; conditions: dosage 320 g/ha
Excerpt: as §3, §4

[16] = system: Verconica persica (VERPE); test: Pre-emergence herbicidal action against VERPE; conditions: dosage 320 g/ha
Excerpt: as §3, §4

[17] = system: Amaranthus retroflexus (AMARE); test: Pre-emergence herbicidal action against AMARE; conditions: visual scoring after about 3 weeks vs untreated controls
Excerpt: as §3, §4

[18] = system: Setaria viridis (SETVI); test: Post-emergence herbicidal action against SETVI; conditions: dosage 320 g/ha
Protocol: as §1, §2

[19] = system: Echinochloa crus-galli (ECHCG); test: Pre-emergence herbicidal action against ECHCG; conditions: dosage 320 g/ha
Excerpt: as §3, §4

[20] = system: Viola tricolor (VIOTR); test: Post-emergence herbicidal action against VIOTR
Protocol: as §1, §2

[21] = system: Verconica persica (VERPE); test: Post-emergence herbicidal action against VERPE; conditions: 320 g/ha, VERPE
Protocol: as §1, §2

[22] = system: Echinochloa crus-galli (ECHCG); test: Post-emergence herbicidal action against ECHCG; conditions: dosage 320 g/ha
Protocol: as §1, §2

[23] = 80 g/ha, effect in comparison to untreated controls

SMILES | Post-emergence action against POLCO in % ([1]; dosage 80 g/ha) [%] | Post-emergence action against AVEFA in % ([2]; 80 g/ha) [%] | Pre-emergence action against POLCO in % ([3]; dosage 320 g/ha) [%] | Pre-emergence action against AVEFA in % [5] [%] | Pre-emergence action against ALOMY ([6]; 80 g/ha) [%] | Pre-emergence action against ALOMY ([6]; 320 g/ha) [%] | Post-emergence action against ALOMY in % ([7]; 80 g/ha) [%] | Pre-emergence action against VIOTR in % ([8]; 320 g/ha, Viola tricolor) [%] | Pre-emergence action against VIOTR in % ([8]; dosage 80 g/ha) [%] | Pre-emergence action against LOLRI in % ([9]; dosage 80 g/ha) [%] | Pre-emergence action against LOLRI in % ([9]; dosage 320 g/ha) [%] | Post-emergence action against ORYSA in % [11, 23] [%] | Post-emergence action against ZEAMX in % [12] [%] | Post-emergence action against LOLRI in % ([13]; dosage 80 g/ha) [%] | Pre-emergence action against SETVI in % ([14]; dosage 320 g/ha) [%] | Pre-emergence action against PHBPU in % [15] [%] | Pre-emergence action against AMARE in % ([17]; 80 g/ha) [%] | Pre-emergence action against AMARE in % ([17]; 320 g/ha) [%] | other results
CCOC(=O)C(C)Oc1nn(-c2ccccn2)c(-c2ccc(F)nc2)c1Br (centres unmarked) [Example I-102] | 90 | 90 | 90 | 90 | 100 | 100 | 90 | 100 | 90 | 80 | 100 | 0 | 20 | 90 | 100 | 80 | 80 | 90 | Post-emergence action against AMARE in % ([4]; 80 g/ha, visual rating about 3 weeks after treatment vs untreated controls (100% = plants have died, 0% = like control plants)): 80%; Post-emergence action against ABUTH in % ([10]; 80 g/ha): 80%; Post-emergence action against ORYSA in % ([11]; 20 g/ha, effect vs untreated controls): 0%; Post-emergence action against ZEAMX in % (crop plant compatibility) ([12]; 20 g/ha, ZEAMX, effect in comparison to untreated controls): 0%; Pre-emergence action against SETVI in % ([14]; dosage 80 g/ha): 90%; Pre-emergence action against VERPE in % [16]: 80%
COC(=O)C(C)NC(=O)[C@@H](C)Oc1nn(-c2ccccn2)c(-c2ccc(F)nc2)c1Cl (some centres unmarked) [Example I-358] | 90 | 90 | 90 | 80 | 80 | 100 | 90 | 100 | 80 | 100 | 100 | 0 | 0 | 90 | 100 | 80 | 80 | 100 | Post-emergence action against POLCO in % ([1]; dosage 320 g/ha): 90%; Post-emergence action against SETVI in % [18]: 90%; Post-emergence action against AVEFA in % ([2]; 320 g/ha): 90%; Pre-emergence action against POLCO in % ([3]; dosage 80 g/ha): 80%; Post-emergence action against AMARE in % ([4]; 320 g/ha, visual rating about 3 weeks after treatment): 90%; Post-emergence action against ALOMY in % ([7]; 320 g/ha): 90%; Pre-emergence action against ECHCG in % [19]: 100%; Post-emergence action against VIOTR in % ([20]; 80 g/ha): 90%; Post-emergence action against VIOTR in % ([20]; 320 g/ha): 90%; Post-emergence action against ABUTH in % ([10]; 320 g/ha): 80%; Post-emergence action against ORYSA in % ([11]; 320 g/ha, effect in comparison to untreated controls): 0%; Post-emergence action against LOLRI in % ([13]; dosage 320 g/ha): 90%; Post-emergence action against VERPE in % [21]: 80%; Post-emergence action against ECHCG in % [22]: 90%

— patent US20240041042A1, “1-(PYRIDYL)-5-AZINYLPYRAZOLE DERIVATIVES, AND THEIR USE FOR CONTROL OF UNDESIRED PLANT GROWTH” (Bayer Aktiengesellschaft, priority 2020, published 2024)
